From US9902736B2, “1-oxo/acylation-14-acylated oridonin derivative, preparation method therefor and application thereof” (HANGZHOU BENSHENG PHARMACEUTICAL CO., LTD., priority 2012, dated 2018)
Values after ≈ are worked out from the molar mass of the structure shown.

What was measured:
K562/ADR = assay: Leukemia cell growth inhibition, MTT, 72 h; type: cell-based; settings: Homo sapiens
Method in brief: (§1)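 Viability determined by MTT following a 72-hour, 37° C, 5% CO2 incubation with test compounds at different concentrations, added the day after seeding 6000 cells per well.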

Kasumi-1 = assay: Leukemia cell growth inhibition, MTT, 72 h; type: cell-based; settings: Homo sapiens
Method in brief: as §1

H9 = assay: Leukemia cell growth inhibition, MTT, 72 h; type: cell-based, human; settings: Homo sapiens, H9; 72 h, MTT
Method in brief: as §1

Jurkat = assay: Leukemia cell growth inhibition, MTT, 72 h; type: cell-based, human; settings: for IC50 / IC90: Homo sapiens, Jurkat, 72 h, MTT; for anti-Jurkat cell line activity increased: as compared with oridonin
Method in brief: as §1

NB4 = assay: Leukemia cell growth inhibition, MTT, 72 h; type: cell-based, human; settings: Homo sapiens, NB-4; 72 h, MTT
Method in brief: as §1

RPMI 8226 = assay: Multiple myeloma cell growth inhibition, MTT, 72 h; type: cell-based; settings: Homo sapiens
Method in brief: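 Growth inhibition by MTT after 72 h drug exposure (37 °C, 5% CO2) over a concentration range of oridonin derivatives. RPMI 8226 cells plated at 6000 per well and dosed the following day.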

CNE = assay: Solid tumor cell growth inhibition, MTT, 72 h; type: cell-based, human; settings: Homo sapiens, CNE; 72 h, MTT
Method in brief: (§2)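 After overnight-scale attachment (24 hours, 37° C, 5% CO2) in 10% FBS high-glucose DMEM, wells holding 6000 cells were dosed with varying compound concentrations and later scored for viable cell concentration.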

Hela = assay: Solid tumor cell growth inhibition, MTT, 72 h; type: cell-based, human; settings: Homo sapiens, HeLa; 72 h, MTT
Method in brief: as §2

Hep-2 = assay: Solid tumor cell growth inhibition, MTT, 72 h; type: cell-based, human; settings: Homo sapiens, HEp-2; 72 h, MTT
Method in brief: as §2

MGC-803 = assay: Solid tumor cell growth inhibition, MTT, 72 h; type: cell-based, human; settings: Homo sapiens, MGC-803; 72 h, MTT
Method in brief: as §2

A549 = assay: Solid tumor cell growth inhibition, MTT, 72 h; type: cell-based; settings: Homo sapiens
Method in brief: as §2

Becap-37 = assay: Solid tumor cell growth inhibition, MTT, 72 h; type: cell-based; settings: Homo sapiens
Method in brief: as §2

CaEs-17 = assay: Solid tumor cell growth inhibition, MTT, 72 h; type: cell-based; settings: Homo sapiens, CaEs17
Method in brief: as §2

Hep G2 = assay: Solid tumor cell growth inhibition, MTT, 72 h; type: cell-based; settings: Homo sapiens, HepG2
Method in brief: as §2

MG-63 = assay: Solid tumor cell growth inhibition, MTT, 72 h; type: cell-based; settings: Homo sapiens
Method in brief: as §2

PANC-1 = assay: Solid tumor cell growth inhibition, MTT, 72 h; type: cell-based; settings: Homo sapiens
Method in brief: as §2

PC-3 = assay: Solid tumor cell growth inhibition, MTT, 72 h; type: cell-based; settings: Homo sapiens
Method in brief: as §2

RKO = assay: Solid tumor cell growth inhibition, MTT, 72 h; type: cell-based; settings: Homo sapiens
Method in brief: as §2

SK-OV-3 = assay: Solid tumor cell growth inhibition, MTT, 72 h; type: cell-based; settings: Homo sapiens, SK-OV-3, 72 h, MTT; for IC50: read-out: IC50 SK-OV-3; for IC90: read-out: IC90 SK-OV-3
Method in brief: as §2

U87-MG = assay: Solid tumor cell growth inhibition, MTT, 72 h; type: cell-based; settings: Homo sapiens, U-87 MG
Method in brief: as §2

`C=C1C(=O)[C@]23[C@H](OC(=O)c4ccc(Cl)cc4)[C@H]1CC[C@H]2[C@@]12CO[C@@]3(O)[C@@H](O)[C@@H]1C(C)(C)CCC2=O` [BS-OR-010] was tested, and the IC50 (K562/ADR) was 0.44 µg/mL (≈ 0.878 µM), the IC90 (K562/ADR) was 1.98 µg/mL (≈ 3.95 µM) and the IC50 (Kasumi-1) was 0.57 µg/mL (≈ 1.14 µM). It also gave an IC90 (Kasumi-1) of 1.76 µg/mL (≈ 3.51 µM), an IC50 (H9) of 0.38 µg/mL (≈ 0.759 µM) and an IC90 (H9) of 0.96 µg/mL (≈ 1.92 µM). The IC50 (Jurkat) was 0.48 µg/mL (≈ 0.958 µM), the IC90 (Jurkat) was 6.06 µg/mL (≈ 12.1 µM) and the “anti-Jurkat cell line activity increased” value (Jurkat) was roughly 4 fold. It also gave an IC50 (NB4) of 0.15 µg/mL (≈ 0.299 µM), an IC90 (NB4) of 0.95 µg/mL (≈ 1.9 µM) and an IC50 (RPMI 8226) of 0.28 µg/mL (≈ 0.559 µM). It also gave an IC90 (RPMI 8226) of 1.78 µg/mL (≈ 3.55 µM), an IC50 (CNE) of 1.39 µg/mL (≈ 2.77 µM) and an IC90 (CNE) of 5.94 µg/mL (≈ 11.9 µM). The IC50 (Hela) was 1.49 µg/mL (≈ 2.97 µM), the IC90 (Hela) was 5.31 µg/mL (≈ 10.6 µM) and the IC50 (Hep-2) was 1.8 µg/mL (≈ 3.59 µM). For the same molecule, the IC90 (Hep-2) was 9.11 µg/mL (≈ 18.2 µM), the IC50 (MGC-803) was 0.68 µg/mL (≈ 1.36 µM) and the IC90 (MGC-803) was 9.04 µg/mL (≈ 18 µM). The IC50 (A549) was 2.83 µg/mL (≈ 5.65 µM), the IC90 (A549) was 7.29 µg/mL (≈ 14.6 µM) and the IC50 (Becap-37) was 1.03 µg/mL (≈ 2.06 µM). For the same molecule, the IC90 (Becap-37) was 3.72 µg/mL (≈ 7.43 µM), the IC50 (CaEs-17) was 1.1 µg/mL (≈ 2.2 µM) and the IC90 (CaEs-17) was 5.51 µg/mL (≈ 11 µM). The IC50 (Hep G2) was 0.99 µg/mL (≈ 1.98 µM), the IC90 (Hep G2) was 11.7 µg/mL (≈ 23.4 µM) and the IC50 (MG-63) was 0.46 µg/mL (≈ 0.918 µM). The IC90 (MG-63) was 0.95 µg/mL (≈ 1.9 µM), the IC50 (PANC-1) was 1.86 µg/mL (≈ 3.71 µM) and the IC90 (PANC-1) was 10.7 µg/mL (≈ 21.3 µM). For the same molecule, the IC50 (PC-3) was 1.66 µg/mL (≈ 3.31 µM), the IC90 (PC-3) was 4.77 µg/mL (≈ 9.52 µM) and the IC50 (RKO) was 0.46 µg/mL (≈ 0.918 µM). It also gave an IC90 (RKO) of 0.95 µg/mL (≈ 1.9 µM), an IC50 (SK-OV-3) of 1.66 µg/mL (≈ 3.31 µM) and an IC90 (SK-OV-3) of 4.77 µg/mL (≈ 9.52 µM). For the same molecule, the IC50 (U87-MG) was 0.94 µg/mL (≈ 1.88 µM) and the IC90 (U87-MG) was 2.78 µg/mL (≈ 5.55 µM).
For `C=C1C(=O)[C@]23[C@H](OC(=O)c4ccc(OC)cc4)[C@H]1CC[C@H]2[C@@]12CO[C@@]3(O)[C@@H](O)[C@@H]1C(C)(C)CCC2=O` [BS-OR-005], the IC50 (K562/ADR) was 0.4 µg/mL (≈ 0.806 µM), the IC90 (K562/ADR) was 1.44 µg/mL (≈ 2.9 µM) and the IC50 (Kasumi-1) was 0.43 µg/mL (≈ 0.866 µM). The IC90 (Kasumi-1) was 1.05 µg/mL (≈ 2.11 µM), the IC50 (H9) was 0.38 µg/mL (≈ 0.765 µM) and the IC90 (H9) was 0.92 µg/mL (≈ 1.85 µM). For the same molecule, the IC50 (Jurkat) was 0.44 µg/mL (≈ 0.886 µM), the IC90 (Jurkat) was 2.88 µg/mL (≈ 5.8 µM) and the “anti-Jurkat cell line activity increased” value (Jurkat) was roughly 4 fold. It also gave an IC50 (NB4) of 0.07 µg/mL (≈ 0.141 µM), an IC90 (NB4) of 0.49 µg/mL (≈ 0.987 µM) and an IC50 (RPMI 8226) of 0.26 µg/mL (≈ 0.524 µM). The IC90 (RPMI 8226) was 0.96 µg/mL (≈ 1.93 µM), the IC50 (CNE) was 1.09 µg/mL (≈ 2.2 µM) and the IC90 (CNE) was 4.45 µg/mL (≈ 8.96 µM). For the same molecule, the IC50 (Hela) was 1.16 µg/mL (≈ 2.34 µM), the IC90 (Hela) was 3.4 µg/mL (≈ 6.85 µM) and the IC50 (Hep-2) was 1.3 µg/mL (≈ 2.62 µM). It also gave an IC90 (Hep-2) of 5.6 µg/mL (≈ 11.3 µM), an IC50 (MGC-803) of 0.7 µg/mL (≈ 1.41 µM) and an IC90 (MGC-803) of 5.4 µg/mL (≈ 10.9 µM). It also gave an IC50 (A549) of 1.71 µg/mL (≈ 3.44 µM), an IC90 (A549) of 4.31 µg/mL (≈ 8.68 µM) and an IC50 (Becap-37) of 0.7 µg/mL (≈ 1.41 µM). It also gave an IC90 (Becap-37) of 2.78 µg/mL (≈ 5.6 µM), an IC50 (CaEs-17) of 0.81 µg/mL (≈ 1.63 µM) and an IC90 (CaEs-17) of 3.03 µg/mL (≈ 6.1 µM). It also gave an IC50 (Hep G2) of 0.84 µg/mL (≈ 1.69 µM), an IC90 (Hep G2) of 5.27 µg/mL (≈ 10.6 µM) and an IC50 (MG-63) of 0.28 µg/mL (≈ 0.564 µM). For the same molecule, the IC90 (MG-63) was 0.75 µg/mL (≈ 1.51 µM), the IC50 (PANC-1) was 1.26 µg/mL (≈ 2.54 µM) and the IC90 (PANC-1) was 4.91 µg/mL (≈ 9.89 µM). The IC50 (PC-3) was 1.22 µg/mL (≈ 2.46 µM), the IC90 (PC-3) was 3.16 µg/mL (≈ 6.36 µM) and the IC50 (RKO) was 0.31 µg/mL (≈ 0.624 µM). It also gave an IC90 (RKO) of 0.84 µg/mL (≈ 1.69 µM), an IC50 (SK-OV-3) of 1.22 µg/mL (≈ 2.46 µM) and an IC90 (SK-OV-3) of 3.16 µg/mL (≈ 6.36 µM). For the same molecule, the IC50 (U87-MG) was 0.7 µg/mL (≈ 1.41 µM) and the IC90 (U87-MG) was 2.16 µg/mL (≈ 4.35 µM).
`C=C1C(=O)[C@]23[C@H](OC(=O)c4cccnc4)[C@H]1CC[C@H]2[C@@]12CO[C@@]3(O)[C@@H](O)[C@@H]1C(C)(C)CCC2=O` [BS-OR-011] showed an IC50 (K562/ADR) of 0.75 µg/mL (≈ 1.6 µM), an IC90 (K562/ADR) of 2.35 µg/mL (≈ 5.03 µM) and an IC50 (Kasumi-1) of 1.03 µg/mL (≈ 2.2 µM). For the same molecule, the IC90 (Kasumi-1) was 1.94 µg/mL (≈ 4.15 µM), the IC50 (H9) was 0.56 µg/mL (≈ 1.2 µM) and the IC90 (H9) was 1.23 µg/mL (≈ 2.63 µM). For the same molecule, the IC50 (Jurkat) was 0.87 µg/mL (≈ 1.86 µM), the IC90 (Jurkat) was 5.24 µg/mL (≈ 11.2 µM) and the IC50 (NB4) was 0.27 µg/mL (≈ 0.578 µM). It also gave an IC90 (NB4) of 0.9 µg/mL (≈ 1.93 µM), an IC50 (RPMI 8226) of 0.9 µg/mL (≈ 1.93 µM) and an IC90 (RPMI 8226) of 1.93 µg/mL (≈ 4.13 µM). The IC50 (CNE) was 2.26 µg/mL (≈ 4.83 µM), the IC90 (CNE) was 8.1 µg/mL (≈ 17.3 µM) and the IC50 (Hela) was 2.53 µg/mL (≈ 5.41 µM). The IC90 (Hela) was 6.79 µg/mL (≈ 14.5 µM), the IC50 (Hep-2) was 3.8 µg/mL (≈ 8.13 µM) and the IC90 (Hep-2) was 14.1 µg/mL (≈ 30.1 µM). The IC50 (MGC-803) was 1.6 µg/mL (≈ 3.42 µM), the IC90 (MGC-803) was 11.9 µg/mL (≈ 25.5 µM) and the IC50 (A549) was 5.58 µg/mL (≈ 11.9 µM). For the same molecule, the IC90 (A549) was 9.47 µg/mL (≈ 20.3 µM), the IC50 (Becap-37) was 1.96 µg/mL (≈ 4.19 µM) and the IC90 (Becap-37) was 6.11 µg/mL (≈ 13.1 µM). It also gave an IC50 (CaEs-17) of 1.41 µg/mL (≈ 3.02 µM), an IC90 (CaEs-17) of 5.24 µg/mL (≈ 11.2 µM) and an IC50 (Hep G2) of 2.53 µg/mL (≈ 5.41 µM). For the same molecule, the IC90 (Hep G2) was 12.6 µg/mL (≈ 27 µM), the IC50 (MG-63) was 0.74 µg/mL (≈ 1.58 µM) and the IC90 (MG-63) was 3.01 µg/mL (≈ 6.44 µM). The IC50 (PANC-1) was 2.99 µg/mL (≈ 6.4 µM), the IC90 (PANC-1) was 7.92 µg/mL (≈ 16.9 µM) and the IC50 (PC-3) was 2.53 µg/mL (≈ 5.41 µM). It also gave an IC90 (PC-3) of 4.87 µg/mL (≈ 10.4 µM), an IC50 (RKO) of 0.59 µg/mL (≈ 1.26 µM) and an IC90 (RKO) of 1.44 µg/mL (≈ 3.08 µM). It also gave an IC50 (SK-OV-3) of 2.53 µg/mL (≈ 5.41 µM), an IC90 (SK-OV-3) of 4.87 µg/mL (≈ 10.4 µM) and an IC50 (U87-MG) of 1.17 µg/mL (≈ 2.5 µM). For the same molecule, the IC90 (U87-MG) was 3.29 µg/mL (≈ 7.04 µM).
